Source: patent US20240352020A1, “PYRAZOLE-CONTAINING CBP/CATENIN ANTAGONISTS AND USES THEREOF” (3+2 PHARMA, LLC, priority 2021, published 2024)

How the values were obtained:
CBP/β-Catenin = test: SuperTOPFLASH cell-based luciferase assay (Wnt-driven Luciferase Activity in Stably Transfected Cell Line, Hek293, STF1.1)
Protocol: SuperTOPFLASH Cell-based Luciferase Assay. Hek-293, STF1.1 cells are maintained in DMEM, 10% FBS, Pen-Strep supplemented with 200 μg/mL G418. On the day prior to assay, cells are split into a white, opaque 96-well plate at 10,000 cells per well in 50 μL of complete medium without G418 (for screening of Wnt-signaling inhibitors, G418 can be left out during screening process). After allowing the cells to stabilize and attach overnight, 40 μL of complete medium (without G418) containing 2.5× final concentration of compound or DMSO control is added to the cells and allowed to incubate for 1 hour at 37° C., 5% CO2 prior to adding 10 μL of a 100 mM LiCl solution prepared in complete medium (without G418). After 24 hours, 100 μL of BrightGlo (Promega, Cat. #: G7573) is added to each well and the plate is shaken for 5 minutes prior to reading on the Perkin-Elmer EnVision Plate Reader. For example, on the day prior to assay: cells are split into a white opaque 96-well plate at 10,000 cells per well in 50 μL of complete growth medium; the plate is incubated overnight at 37° C., 5% CO2 and the cells allowed to attach; the next day inhibitors to be tested are prepared in complete growth medium at 2.5× the desired final concentration (all conditions are done in duplicates), and 40 μL of the medium containing the 2.5× concentration of compound is added to each well (include 2 wells for stimulation control, 2 wells for DMSO control, and wells for the positive control ICG-001 (e.g., 2, 5, and 10 micromolar)); once all inhibitors and controls are added, incubate the plate for 1 hour at 37° C., 5% CO2 (while plate is incubating, prepare fresh 100 mM LiCl in complete growth medium); after 1 hour, the plate is removed from the incubator and 10 μL of the medium containing 100 mM LiCl are added to each well (except for the two wells of the unstimulated control, to which […] of just complete medium is added); the plate is incubated for 24 hours at 37° C., 5% CO2; after 24 hours, 100 microliters of BrightGlo (Promega, Cat. #: G7573) is added to each well, the plate is shaken for 5 minutes to ensure complete lysis, and the plate is then read on a Perkin-Elmer EnVision 96-well plate reader.

[1] = intravenous, patients with HCV cirrhosis, cited from earlier work
[2] = system: T memory stem cells (SCM) and central memory T-cells (CM); settings: ART-suppressed SIVmac251-infected RMs; cited from earlier work
[3] = FIG. 1, compounds 0.078 μM to 10 μM, ICG-001 positive control at 0.62-20 μM
[4] = 10 and 40 mg/m^2/day for 12 weeks
[5] = FIG. 2, compounds 0.625 μM to 5 μM, ICG-001 positive control at 2.5, 5 and 10 μM

## O=C1[C@H](Cc2ccc(O)cc2)N2C(=O)CN(Cc3cnn(-c4ccccc4)c3)N(C(=O)NCc3ccccc3)[C@H]2CN1Cc1cccc2ncccc12 [Compound 1, (6S,9aS)—N-benzyl-6-(4-hydroxybenzyl)-4,7-dioxo-2-((1-phenyl-1H-pyrazol-4-yl)methyl)-8-(quinolin-5-ylmethyl)octahydro-1H-pyrazino[2,1-c][1,2,4]triazine-1-carboxamide]
CBP/β-Catenin; [3]
  CBP/β-Catenin inhibition activity: potency compared with ICG-001: greater potency than that of ICG-001
CBP/β-Catenin; FIG. 1, concentrations between 0.078 μM and 10 μM
  CBP/β-Catenin inhibition activity: potency compared between compounds 1 and 2: greater potency than that of compound 2

## C[C@H]1[C@H]2N(C(=O)CN(C)N2C(=O)NCc2ccccc2)[C@@H](Cc2ccc(OP(=O)(O)O)cc2)C(=O)N1Cc1cccc2cccnc12 [PRI-724]
[1]; 10 and 40 mg/m^2/day for 12 weeks (1 week on and 1 week off)
  Safety: appeared to be safe
[1]; [4]
  Liver histology and Child Pugh scores: improvement in liver histology and Child Pugh scores in several patients
  Plasma exposure of the drug: dose-dependent plasma exposure
[2]
  Proliferation of T memory stem cells (SCM) and central memory (CM) T-cells: decrease proliferation

## O=C1[C@H](Cc2ccc(O)cc2)N2C(=O)CN(Cc3cnn(-c4ccccc4)c3Br)N(C(=O)NCc3ccccc3)[C@H]2CN1Cc1cccc2ncccc12 [Compound 2, (6S,9aS)—N-benzyl-2-((5-bromo-1-phenyl-1H-pyrazol-4-yl)methyl)-6-(4-hydroxybenzyl)-4,7-dioxo-8-(quinolin-5-ylmethyl)octahydro-1H-pyrazino[2,1-c][1,2,4]triazine-1-carboxamide]
CBP/β-Catenin; [3]
  CBP/β-Catenin inhibition activity: potency compared with ICG-001: greater potency than that of ICG-001

## O=C1[C@H](Cc2ccc(O)cc2)N2C(=O)CN(Cc3ccn(-c4ccccc4)n3)N(C(=O)NCc3ccccc3)[C@H]2CN1Cc1cccc2cccnc12 [Compound 3, (6S,9aS)—N-benzyl-6-(4-hydroxybenzyl)-4,7-dioxo-2-((1-phenyl-1H-pyrazol-3-yl)methyl)-8-(quinolin-8-ylmethyl)octahydro-1H-pyrazino[2,1-c][1,2,4]triazine-1-carboxamide]
CBP/β-Catenin; [5]
  CBP/β-Catenin inhibition activity: potency compared with ICG-001: greater potency than that of ICG-001

## O=C1[C@H](Cc2ccc(O)cc2)N2C(=O)CN(Cc3cnn(-c4ccccc4)c3)N(C(=O)NCc3ccccc3)[C@H]2CN1Cc1cccc2cccnc12 [Compound 4, (6S,9aS)—N-benzyl-6-(4-hydroxybenzyl)-4,7-dioxo-2-((1-phenyl-1H-pyrazol-4-yl)methyl)-8-(quinolin-8-ylmethyl)octahydro-1H-pyrazino[2,1-c][1,2,4]triazine-1-carboxamide]
CBP/β-Catenin; [5]
  CBP/β-Catenin inhibition activity: potency compared with ICG-001: greater potency than that of ICG-001
CBP/β-Catenin; FIG. 2, concentrations between 0.625 μM and 5 μM
  CBP/β-Catenin inhibition activity: potency compared between compounds 3 and 4: greater potency than that of compound 3
